Values after ≈ are worked out from the molar mass of the structure shown.
Key:
Water solubility = assay type: physicochemical; settings: for Solubility in g per l water at 25° C, white gel / thick syrup / solubility: water
Protocol: It is primarily for the purpose of providing water solubility to the steryl monosaccharides that the compounds of this invention, the dicarboxylic acid half ester derivatives and their salts, were prepared.
A solution of succinic anhydride (8.6 g, 0.086 mole) and anhydrous sitosteryl β-D-glucoside (24.7 g, 0.043 mole) in anhydrous pyridine (90 ml) was refluxed for 30 minutes and then left to stand for 20 hrs before it was poured into vigorously stirred conc. hydrochloric acid (104 ml) at ice temperature. The mixture was allowed to stand for 2 hrs before the precipitated hemiester was gravity filtered. The collected solid, washed with iced water until the washings were neutral, was dried in a vacuum oven and a small sample of this was dried to constant weight for a C and H analysis.
The standard preparation of the sterolin dicarboxylic acid hemiester salts illustrated by the preparation of the disodium salt of sitosteryl β-D-glucoside dihemisuccinate. The wet sitosteryl β-D-glucoside dihemisuccinate washed clear of hydrochloric acid as described in Example 1 was transferred quantitatively into a sodium bicarbonate solution (200 ml water; 7.2 g or 0.086 mole NaHCO3). This mixture cooled to 0° C. was slowly poured with vigorous stirring into ice cold acetone (2000 ml) and the white precipitate of the salt was allowed to settle over 18 hrs in an ice chest before it was filtered under suction. The moist salt was thoroughly stirred into ice cold acetone (200 ml), the slurry suction filtered and the filter cake washed with cold ether before the product was dried in a vacuum oven at 40° C. for 48 hrs followed by 2×1 minute heating in a microoven.

[1] = tested on: rat paw-oedema / inflammation (Brewer's Yeast); assay: Anti-inflammatory effect, Brewer's Yeast rat paw oedema, intraperitoneal administration; assay type: in vivo, male Sprague-Dawley rats
Protocol: (§1) Ten animals were killed 5 hours after the challenge in order to determine the effect of the test substance on the accute inflammatory process. The remaining members of the group were sacrificed after 24 hours and used to assess the effect of the test compound on the secondary, residual inflammatory action of yeast. The average amount of oedema and swelling produced in the right foot by yeast was obtained by subtracting the weight of the foot from the weight obtained of the control (saline) side.
Groups of 20 male Sprague-Dawley rats, weighing 250 (±10 g) were acclimatized to the test environment. The test compound was made up in physiological saline at concentrations allowing the selected dose to be administered intraperitoneally at the rate of 0.1 ml/100 g body weight.
The test agent was administered 1.0 hour before the challenge with Brewer's Yeast. Otherwise the test procedure described under (a) was followed.

[2] = in vivo, ip
[3] = tested on: rat paw-oedema / inflammation (Brewer's Yeast); assay: Anti-inflammatory effect, Brewer's Yeast rat paw oedema, oral administration; assay type: in vivo, male Sprague-Dawley rats
Protocol: Twenty male Sprague-Dawley rats, (original supplier: Blue Spruce; Altamont U.S.A.) weighing 240-260 g, were acclimatized for at least 10 days to the test environment.
(§2) The test substance was suspended in a 1% m/v Tylose® solution made up with distilled water. The selected test doses of the compounds were administered by force feeding at the rate of 1.0 ml/100 g body weight 24.0 hrs and 1.0 hour before the intra-plantar administration of the phlogegenic agent. Brewer's Yeast served as the inflammation-inducing substance and was injected at the rate of 0.1 ml of a 2% suspension made up in sterile saline into the right hind paw. (The left hind paw was injected with 0.1 ml saline only and served as the control foot.)
as §1, with “side. The results obtained from the treated groups were compared to the relevant control groups which received a similar volume of the aqueous Tylose®-solution only and the difference was expressed as a percentage increase or decrease over the control value.” for “side.”

[4] = Oral toxicity studies in rats (acute and prolonged daily dosing); assay type: in vivo
Protocol: (§3) Preferred daily doses of the compounds of this invention depend on the purpose for which they are used, administered or applied and also whether they are given by oral or parenteral routes or applied topically. […] They may be toxic when administered in large amounts and therefore the oral route is preferred. […] If taken for prophylactic purposes by healthy individuals a daily dose of 0.01-0.1 mg is adequate, although this may be raised to 0.2-1 mg for elderly people. Depending on the severity of a degenerative disease daily doses of 0.3-44 mg may be used for initial treatment until on improvement of the particular condition, a maintenance dose of 0.03-0.6 mg per day is advisable. Lower daily doses are required when these compounds are administered parenterally (e.g. via an intravenous drip). It should be noted that with respect to animals a preferred dose is difficult to predict since it is known that marked differences exist between species and even various breeds or strains of animals in their ability to utilise or react to steroidal glycosides (44-46).

[5] = Oral toxicity studies in primates (acute and prolonged daily dosing); assay type: in vivo
Protocol: as §3

[6] = Acute toxicity after a single oral or parenteral dose; assay type: in vivo, male Sprague-Dawley rats; settings: intraperitoneal, after 7 days
Protocol: as §2
Male rats of Sprague-Dawley strain and with a weight of 250-350 g were injected intraperitoneally with 0.1-0.5 ml/100 g body weight of an aqueous solution or suspension. Oral administration was carried out as described under (a). Examination of the acute toxicity was carried out after 7 days.

**Q.** For “disodium salt of sitosteryl β-D-glucoside dihemisuccinate [S.G. dihemisuccinate Na2 salt]”, which “Solubility in g per l water at 25° C, white gel / thick syrup” value (Water solubility) is on record?
**A.** The value was 5×10^2 g per l.

**Q.** What about the solubility (Water solubility) of the same compound?
**A.** The solubility was 2e+06 µg/mL.

**Q.** And the “Average percentage reduction of rat paw-oedema / inflammation” value ([1]; single dose 25 mg/kg 1 hour before challenge, after 5 hours)?
**A.** The value was 27%.

**Q.** What about the “Average percentage reduction of rat paw-oedema / inflammation” value ([1]; single dose 25 mg/kg 1 hour before challenge, after 24 hours) of the same compound?
**A.** Its value is 14%.

**Q.** What about the “Average percentage reduction of rat paw-oedema / inflammation” value ([1]; single dose 50 mg/kg 1 hour before challenge, after 5 hours) of the same compound?
**A.** Its value is 47%.

**Q.** And the “Average percentage reduction of rat paw-oedema / inflammation” value ([1]; single dose 50 mg/kg 1 hour before challenge, after 24 hours)?
**A.** Its value is 35%.

**Q.** What about the “Adverse effects and tissue toxicity” value [2] of the same compound?
**A.** The value was “fewer adverse effects coupled with a lower tissue toxicity”.

**Q.** What about the “Average percentage reduction of rat paw-oedema / inflammation” value ([3]; 500 mg/kg given 24,0 and 1,0 hour before challenge, after 5 hours) of the same compound?
**A.** The value was 8,5%.

**Q.** And the “Average percentage reduction of rat paw-oedema / inflammation” value ([3]; 500 mg/kg given 24,0 and 1,0 hour before challenge, after 24 hours)?
**A.** The value was 10,7%.

**Q.** And the “Average percentage reduction of rat paw-oedema / inflammation” value ([3]; 1000 mg/kg given 24,0 and 1,0 hour before challenge, after 5 hours)?
**A.** Its value is 14,5%.

**Q.** What about the “Average percentage reduction of rat paw-oedema / inflammation” value ([3]; 1000 mg/kg given 24,0 and 1,0 hour before challenge, after 24 hours) of the same compound?
**A.** Its value is 18,5%.

**Q.** Which “Tolerance of prolonged daily doses” value ([4]; rat, in vivo) does the source give for “sitosteryl β-D-glucoside dihemisuccinate [S.G. dihemisuccinate]” here?
**A.** The value was “well tolerated”.

**Q.** And the “Acute toxicity studies, toxic effects” value ([4]; rats, oral, even in excess of 1000-2000 mg/kg)?
**A.** The value was “no toxic effects”.

**Q.** And the “Solubility (state or result in words)” value (Water solubility)?
**A.** Its value is “colloidal”.

**Q.** And the “Solubility in g per l water at 25° C, white gel / thick syrup” value (Water solubility)?
**A.** Its value is 5×10^2 g per l.

**Q.** And the solubility (Water solubility)?
**A.** Its solubility is 1,25×10^3 g/l.

**Q.** What about the “Tolerance of prolonged daily doses” value ([5]; in vivo) of the same compound?
**A.** The value was “well tolerated”.

**Q.** What about the “Acute toxicity studies, toxic effects” value ([5]; primates, oral, even in excess of 1000-2000 mg/kg) of the same compound?
**A.** The value was “no toxic effects”.

**Q.** And the “Acute toxicity after a single dose (% at dose)” value ([6]; 100 mg/kg)?
**A.** The value was 25%.

**Q.** For CC[C@H](CC[C@@H](C)[C@H]1CC[C@H]2[C@@H]3CC=C4C[C@@H](O[C@@H]5O[C@H](CO)[C@@H](O)[C@H](O)[C@H]5O)CC[C@]4(C)[C@H]3CC[C@]12C)C(C)C [S.G., sitosteryl β-D-glucoside, reference compound], which solubility (Water solubility) is on record?
**A.** Its solubility is 9 µg/mL (≈ 15.6 µM).

**Q.** What does the source list for CCC(CCC(C)C1CCC2C3CC=C4CC(OC5OC(COC(=O)CCC(=O)O)C(OC(=O)CCC(=O)O)C(OC(=O)CCC(=O)O)C5OC(=O)CCC(=O)O)CCC4(C)C3CCC12C)C(C)C (stereo not drawn) [S.G. tetrahemisuccinate]?
**A.** Reduction of the inflammatory response in the rat-paw oedema trials in % ([1]; (50) mg/kg body weight, TABLE 2, time not given): -46.3%; Acute toxicity after a single dose (% at dose) ([6]; 100 mg/kg): 20%; Acute toxicity after a single dose (% at dose) ([6]; 200 mg/kg): 100%

**Q.** Which solubility (Water solubility) does the source give for CC[C@H](CC[C@@H](C)[C@H]1CC[C@H]2[C@@H]3CC=C4C[C@@H](O[C@@H]5O[C@H](CO)[C@@H](O[C@H]6O[C@H](CO)[C@@H](O)[C@H](O)[C@H]6O)[C@H](O)[C@H]5O)CC[C@]4(C)[C@H]3CC[C@]12C)C(C)C [S.M., sitosteryl β-D-maltoside, reference compound] here?
**A.** Its solubility is 380 µg/mL (≈ 514 µM).

Reference: patent US4254111A, “Sterolin products” (Roecar Holdings (Netherlands Antilles) NV, priority 1978, dated 1981)
